Data as given in patent publication US20250295646A1, “METHODS OF USE OF T-TYPE CALCIUM CHANNEL MODULATORS” (Praxis Precision Medicines, Inc., priority 2022, published 2025).

Key:
[1] = test system: adult patients with essential tremor; assay: Essential tremor trial Example 16 Part B randomized withdrawal phase: TETRAS, mADL, ADL efficacy; type: in vivo, human; parameters: TETRAS mADL Mean CFB (SD): unit not given here; settings: for TETRAS ADL LS Mean CFB / TETRAS CULS LS Mean CFB / TETRAS PS Item 6: Archimedes Spiral (Left) LS Mean CFB / TETRAS PS Item 6: Archimedes Spiral (Right) LS Mean CFB / TETRAS PS Item 7: Handwriting LS Mean CFB / TETRAS PSTS LS Mean CFB / TETRAS ULS LS Mean CFB / TETRAS mADL LS Mean CFB: change from randomization baseline; for TETRAS ADL Mean CFB (SD) / TETRAS CULS CTA (%) / TETRAS PS Item 6: Archimedes Spiral (Left) CTA (%) / TETRAS PS Item 6: Archimedes Spiral (Right) CTA (%) / TETRAS PS Item 7: Handwriting CTA (%) / TETRAS PSTS CTA (%) / TETRAS ULS CTA (%) / TETRAS mADL Mean CFB (SD): from randomization baseline
Experimental: (§1) A two part trial (Part A and Part B as described below) was conducted to study the efficacy, safety, tolerability, and pharmacokinetics of the compound of formula (I) in adult patients with essential tremor (ET).
(§2) Participants were males and females ages 18 and older with a clinical diagnosis of ET. Participants who have a history of any other medical, neurological, or psychiatric condition that may explain or cause tremor were excluded. Participants who have previously received treatment with formula (I) in any clinical trial (including Part A of the current trial for participants enrolling in Part B) were also excluded.
In Part B, an open label titration phase and a randomized, double-blind, placebo-controlled trial was conducted.

[2] = test system: adult patients with essential tremor; assay: Essential tremor trial Example 16 Part B open-label titration phase: TETRAS, mADL, ADL efficacy; type: in vivo, human; settings: Part B - OLT, FAS; Day 7; change from pre-dose baseline
Experimental: as §1, §2
In Part B, an open label titration phase and a randomized, double-blind, placebo-controlled trial was conducted. […] During the withdrawal phase, patients either continued receiving formula (I) at their current dose or switched to placebo, depending on the randomization, for 14 days (Day 43 to Day 56).

[3] = Formula (I) group, Day 70 follow-up
[4] = Part B - RWD, RWAS, Formula (I) group, Day 56
[5] = Part B - RWD, RWAS, Formula (I) group, Day 70
[6] = Part B - RWD, RWAS, Formula (I) group, Randomization Baseline (Day 42 post-dose value)
[7] = Part B RWD, Formula (I) group, Day 56

## CC(C)(C)NC(=O)CN1CCC(CNC(=O)c2cc(F)cc(Cl)c2)CC1 [compound of formula (I), N-((1-(2-(tert-butylamino)-2-oxoethyl)piperidin-4-yl)methyl)-3-chloro-5-fluorobenzamide]
[1]; [3]
  TETRAS ADL score, LS mean change from randomization baseline (Day 42): 3.267
  TETRAS combined upper limb score, LS mean change from randomization baseline (Day 42): 3.156
  increase in combined upper limb tremor amplitude: 28.1%
  increase in upper limb tremor amplitude: 27.2%
  mADL score, LS mean change from randomization baseline (Day 42): 4.353
[1]; Formula (I) group, Day 70 follow-up (2 weeks after cessation)
  TETRAS upper limb score, LS mean change from randomization baseline (Day 42): 1.653
[1]; Part B - RWD, RWAS, Day 56
  TETRAS ADL LS Mean Difference: Formula (I) - Placebo (95% CI): −9.578 (−18.9020, −0.2546)
  TETRAS CULS LS Mean Difference: Formula (I) - Placebo (95% CI): −1.896 (−8.7365, 4.9451)
  TETRAS PSTS LS Mean Difference: Formula (I) - Placebo (95% CI): −3.025 (−11.2090, 5.1595)
  TETRAS ULS LS Mean Difference: Formula (I) - Placebo (95% CI): −0.253 (−4.9188, 4.4129)
  TETRAS mADL LS Mean Difference: Formula (I) - Placebo (95% CI): −8.439 (−15.3856, −1.4916)
[1]; Part B - RWD, RWAS, Day 70
  TETRAS ADL LS Mean Difference: Formula (I) - Placebo (95% CI): −5.988 (−16.8132, 4.8377)
  TETRAS CULS LS Mean Difference: Formula (I) - Placebo (95% CI): −0.964 (−6.5938, 4.6660)
  TETRAS PSTS LS Mean Difference: Formula (I) - Placebo (95% CI): −1.277 (−7.5286, 4.9741)
  TETRAS ULS LS Mean Difference: Formula (I) - Placebo (95% CI): −0.316 (−3.3765, 2.7441)
  TETRAS mADL LS Mean Difference: Formula (I) - Placebo (95% CI): −3.236 (−12.3264, 5.8538)
[1]; [4]
  TETRAS ADL LS Mean CFB: 0.877
  TETRAS CULS LS Mean CFB: 1.525
  TETRAS PS Item 6: Archimedes Spiral (Left) LS Mean CFB: 0.394
  TETRAS PS Item 6: Archimedes Spiral (Right) LS Mean CFB: 0.087
  TETRAS PS Item 7: Handwriting LS Mean CFB: 0.037
  TETRAS PSTS LS Mean CFB: 1.174
  TETRAS ULS LS Mean CFB: 0.716
  TETRAS mADL LS Mean CFB: 1.350
  TETRAS ADL Mean CFB (SD): 5.84 (16.276)
  TETRAS CULS CTA (%): 14.7%
  TETRAS PS Item 6: Archimedes Spiral (Left) CTA (%): 36.5%
  TETRAS PS Item 6: Archimedes Spiral (Right) CTA (%): 9.5%
  TETRAS PS Item 7: Handwriting CTA (%): 4.2%
  TETRAS PSTS CTA (%): 8.1%
  TETRAS ULS CTA (%): 12.8%
  TETRAS mADL Mean CFB (SD): 8.45 (34.208)
[1]; [5]
  TETRAS ADL LS Mean CFB: 3.267
  TETRAS CULS LS Mean CFB: 3.156
  TETRAS PS Item 6: Archimedes Spiral (Left) LS Mean CFB: 0.384
  TETRAS PS Item 6: Archimedes Spiral (Right) LS Mean CFB: 0.353
  TETRAS PS Item 7: Handwriting LS Mean CFB: 0.189
  TETRAS PSTS LS Mean CFB: 3.422
  TETRAS ULS LS Mean CFB: 1.653
  TETRAS mADL LS Mean CFB: 4.353
  TETRAS ADL Mean CFB (SD): 18.73 (24.838)
  TETRAS CULS CTA (%): 28.1%
  TETRAS PS Item 6: Archimedes Spiral (Left) CTA (%): 35.8%
  TETRAS PS Item 6: Archimedes Spiral (Right) CTA (%): 33.4%
  TETRAS PS Item 7: Handwriting CTA (%): 19.6%
  TETRAS PSTS CTA (%): 21.8%
  TETRAS ULS CTA (%): 27.2%
  TETRAS mADL Mean CFB (SD): 87.71 (126.281)
[1]; [6]
  TETRAS ADL, Mean: 22.17
  TETRAS CULS, Mean: 19.33
  TETRAS PS Item 6: Archimedes Spiral (Left), Mean: 1.75
  TETRAS PS Item 6: Archimedes Spiral (Right), Mean: 1.75
  TETRAS PS Item 7: Handwriting, Mean: 1.75
  TETRAS PSTS, Mean: 22.83
  TETRAS ULS, Mean: 10.25
  TETRAS mADL (TETRAS modified total score), Mean: 12.17
[1]; Part B RWD, Day 56
  TETRAS ADL score, LS mean difference (Formula (I)—Placebo): −9.578
  TETRAS combined upper limb score, LS mean difference (Formula (I)—Placebo): −1.896
  TETRAS upper limb score, LS mean difference (Formula (I)—Placebo): −0.253
  mADL total score, LS mean difference (Formula (I)—Placebo): −8.439
[1]; [7]
  TETRAS ADL score, LS mean change from randomization baseline (Day 42): 0.877
  TETRAS combined upper limb score, LS mean change from randomization baseline (Day 42): 1.525
  TETRAS upper limb score, LS mean change from randomization baseline (Day 42): 0.716
  increase in combined upper limb tremor amplitude: 14.7%
  increase in upper limb tremor amplitude: 12.8%
  mADL total score, LS mean change from randomization baseline (Day 42): 1.350
[2]
  TETRAS ADL Score CFB LS Mean: −1.986
  TETRAS CULS Score CFB LS Mean: −0.909
  TETRAS PS Item 6: Archimedes Spiral (Left) Score CFB LS Mean: 0.221
